Laboratory results reported in US5556842A, “Method for viable preservation of lung grafts” (Senju Pharmaceutical Co., Ltd., priority 1994, dated 1996).

Assays:
Acute toxicity LD50 = test: Acute toxicity LD50; parameters: species or system rats; settings: rat, in vivo
[1] = test system: lung graft (cardiac arrest donor lungs); test: Left-lung transplantation model with cardiac arrest donor lungs; pulmonary function parameters over 6 hours after transplantation; assay type: in vivo, adult mongrel dogs
Source text: The lung preserving effect of the lung graft preservative composition of this invention in the transplantation of cardiac arrest donor lungs was experimentally evaluated.
[Test substance] L-Ascorbyl DL-α-tocopheryl phosphate potassium (abbreviation: EPC-K) dissolved in modified Euro-Collins solution ^1)
[Method] The left-lung transplantation model was constructed in adult mongrel dogs and used. The donor was brought to cardiac standstill by intravenous administration of potassium chloride solution and allowed to stand at room temperature for 2 hours. Then, while Group I (n=3) was perfused with Euro-Collins solution, an organ preservative which is commonly used in lung transplantation, Group II (n=3) was perfused with the lung graft preservative composition of this invention, followed by preservation at 4° C. for 12 hours. After the lung was transplanted into the recipient, the right pulmonary artery and right main branchus were ligated and the pulmonary function parameters were determined over a period of 6 hours.

**Q.** Which results are given for `Cc1c(C)c2c(c(C)c1OP(=O)(O)OC1=C(O)[C@@H]([C@@H](O)CO)OC1=O)CCC(C)(CCCC(C)CCCC(C)CCCC(C)C)O2` (mixture of isomers) [EPC-K, L-Ascorbyl DL-α-tocopheryl phosphate potassium]?
**A.** LD50 (Acute toxicity LD50; iv, i.v. (rats)): ≥ 100 mg/kg; LD50 (Acute toxicity LD50; po, p.o. (rats)): ≥ 5000 mg/kg; arterial blood carbon dioxide partial pressure (PaCO2) ([1]; 5 hours after lung transplantation, preserved at 4° C. for 12 hours, n=3): 32.4±20.9 mmHg; arterial blood oxygen partial pressure (PaO2) ([1]; 6 hours after lung transplantation, donor lung 2 h at room temperature after cardiac standstill, preserved at 4° C. for 12 hours, n=3): 460±94 mmHg; extravascular lung water (EVLW), indicator of pulmonary edema ([1]; FIG. 3, vs. Euro-Collins solution (control)): effective in inhibiting edema; pulmonary vascular resistance (PVR) ([1]; FIG. 5, vs. Euro-Collins solution (control)): inhibits the increase of pulmonary vascular resistance; pulmonary arterial pressure (PAP) ([1]; FIG. 6, vs. Euro-Collins solution (control)): inhibits pulmonary edema without increasing pulmonary vascular resistance; cardiac output (CO) ([1]; FIG. 7, vs. Euro-Collins solution (control)): exerts no adverse influence on the heart; pulmonary blood shunt fraction ([1]; after 1 and 2 hours, FIG. 4, vs. Euro-Collins solution (control)): pulmonary blood shunt inhibitory effect which is significant after 1 and 2 hours; arterial blood carbon dioxide partial pressure (PaCO2), effect in words ([1]; after 5 hours, vs. Group I (Euro-Collins solution), FIG. 2): remarkably effective; various parameters of pulmonary function ([1]; after blood reperfusion): very favorable effects on various parameters of pulmonary function; pulmonary blood shunt fraction, other time-points ([1]; time-points other than 1 and 2 hours, FIG. 4): This inhibitory effect was also noted at other time-points; arterial blood oxygen partial pressure (PaO2), other time-points ([1]; time-points other than 6 hours, vs. Group I (Euro-Collins solution), FIG. 1): Results in Favor of Group II were obtained at other time-points, too
